Source: patent US9546164B2 (GENENTECH, INC., priority 2013, dated 2017)
Structures can show the parent of a compound that is named as a salt.

target: hNav1.7 (Homo sapiens (Human), UniProt Q15858); test: Tritiated sulfonamide competitive binding to membranes from cells expressing hNav1.7 and the β1 subunit; settings: not given;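 note: Filter-bound radioactivity counted by liquid scintillation, nonspecific binding defined with excess unlabelled ligand, IC50 fitted to percent inhibition of specific binding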
Sequence (Q15858 other isoform, or with tags, fused parts or gaps): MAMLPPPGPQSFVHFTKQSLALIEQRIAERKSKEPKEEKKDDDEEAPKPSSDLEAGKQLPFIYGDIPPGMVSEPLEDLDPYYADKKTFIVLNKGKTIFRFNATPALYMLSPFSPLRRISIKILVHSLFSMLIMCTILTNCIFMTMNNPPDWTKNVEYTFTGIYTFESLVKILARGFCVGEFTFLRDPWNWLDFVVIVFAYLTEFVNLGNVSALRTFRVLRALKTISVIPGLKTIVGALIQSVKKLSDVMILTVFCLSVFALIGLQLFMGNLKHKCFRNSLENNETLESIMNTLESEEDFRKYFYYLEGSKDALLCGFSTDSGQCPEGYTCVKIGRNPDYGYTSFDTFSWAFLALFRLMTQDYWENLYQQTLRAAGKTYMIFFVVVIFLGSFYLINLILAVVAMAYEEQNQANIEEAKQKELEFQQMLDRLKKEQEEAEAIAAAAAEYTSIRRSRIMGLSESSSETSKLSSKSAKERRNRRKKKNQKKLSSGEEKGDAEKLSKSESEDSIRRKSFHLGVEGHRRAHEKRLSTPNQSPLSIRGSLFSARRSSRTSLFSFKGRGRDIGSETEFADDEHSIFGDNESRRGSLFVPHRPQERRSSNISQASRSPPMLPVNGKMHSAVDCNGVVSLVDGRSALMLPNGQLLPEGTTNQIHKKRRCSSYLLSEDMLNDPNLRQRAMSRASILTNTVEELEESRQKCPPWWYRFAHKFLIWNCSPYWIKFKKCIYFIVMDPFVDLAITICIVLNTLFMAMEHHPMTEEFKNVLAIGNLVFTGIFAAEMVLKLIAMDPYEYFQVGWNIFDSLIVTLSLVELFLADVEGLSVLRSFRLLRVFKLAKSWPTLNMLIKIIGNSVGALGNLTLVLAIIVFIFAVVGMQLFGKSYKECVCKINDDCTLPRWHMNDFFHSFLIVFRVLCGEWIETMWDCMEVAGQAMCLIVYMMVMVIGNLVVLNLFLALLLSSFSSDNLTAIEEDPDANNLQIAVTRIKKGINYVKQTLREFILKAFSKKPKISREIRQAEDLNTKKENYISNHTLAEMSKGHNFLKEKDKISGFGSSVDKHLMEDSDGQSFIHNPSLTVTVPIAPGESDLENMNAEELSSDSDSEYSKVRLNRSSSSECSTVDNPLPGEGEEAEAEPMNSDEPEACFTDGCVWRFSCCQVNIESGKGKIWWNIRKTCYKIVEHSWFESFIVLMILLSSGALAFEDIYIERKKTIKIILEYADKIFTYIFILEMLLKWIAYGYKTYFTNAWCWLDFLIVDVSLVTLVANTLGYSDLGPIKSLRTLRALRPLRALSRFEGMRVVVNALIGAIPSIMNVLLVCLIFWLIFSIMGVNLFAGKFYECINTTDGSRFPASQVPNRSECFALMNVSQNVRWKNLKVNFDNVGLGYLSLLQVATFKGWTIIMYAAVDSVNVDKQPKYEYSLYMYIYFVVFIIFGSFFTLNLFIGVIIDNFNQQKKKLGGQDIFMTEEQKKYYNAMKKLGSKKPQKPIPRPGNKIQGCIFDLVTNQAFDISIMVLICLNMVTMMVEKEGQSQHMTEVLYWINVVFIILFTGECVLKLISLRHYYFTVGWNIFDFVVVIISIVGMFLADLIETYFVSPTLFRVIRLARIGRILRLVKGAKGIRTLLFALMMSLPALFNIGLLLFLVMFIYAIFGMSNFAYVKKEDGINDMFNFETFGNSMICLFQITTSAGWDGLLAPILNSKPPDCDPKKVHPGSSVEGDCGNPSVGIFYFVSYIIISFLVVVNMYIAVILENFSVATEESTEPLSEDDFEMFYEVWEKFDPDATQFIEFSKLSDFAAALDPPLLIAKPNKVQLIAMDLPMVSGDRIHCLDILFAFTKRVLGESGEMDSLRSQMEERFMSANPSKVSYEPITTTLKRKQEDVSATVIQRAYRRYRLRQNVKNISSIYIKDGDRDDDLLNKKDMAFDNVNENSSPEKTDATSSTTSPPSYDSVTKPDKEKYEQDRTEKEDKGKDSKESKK
Sequence (Q07699 19-218 partner): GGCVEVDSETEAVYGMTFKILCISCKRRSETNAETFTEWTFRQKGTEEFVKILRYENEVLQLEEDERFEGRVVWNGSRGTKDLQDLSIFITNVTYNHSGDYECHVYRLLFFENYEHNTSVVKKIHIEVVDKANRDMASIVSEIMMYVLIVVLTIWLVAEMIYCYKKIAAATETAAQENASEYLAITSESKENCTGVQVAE

**Q.** `CS(=O)(=O)NC(=O)c1cc(C2CC2)c(O[C@@H]2CCCN(Cc3ccc(Cl)cc3Cl)C2)cc1F` [Example 29, (R)-5-cyclopropyl-4-((1-(2,4-dichlorobenzyl)piperidin-3-yl)oxy)-2-fluoro-N-(methylsulfonyl)benzamide] was tested. Which IC50 did it give?
**A.** The IC50 was 1.7 nM.

same assay, conditions: read-out: Ligand Binding Assay; 100 pM [3H]compound, membranes with hNav1.7 and β1 subunit, 18 h, room temperature

**Q.** How did the IC50 turn out when `Cc1cc(F)ccc1S(=O)(=O)N1CCC(COc2cc(F)c(C(=O)NS(C)(=O)=O)cc2C2CC2)CC1` [Example 386, 5-cyclopropyl-2-fluoro-4-((1-((4-fluoro-2-methylphenyl)sulfonyl)piperidin-4-yl)methoxy)-N-(methylsulfonyl)benzamide] was run?
**A.** Its IC50 is 52.1 nM.

**Q.** For `CCS(=O)(=O)NC(=O)c1cc(C2CC2)c(OCC2CCN([C@](C)(COC)c3cc(Cl)cc(Cl)c3)CC2)cc1F` (single isomer, unassigned) [Example 203], which IC50 is on record?
**A.** The IC50 was 3.6 nM.

**Q.** With `CC1(COc2cc(F)c(C(=O)NS(=O)(=O)N3CCC3)cc2C2CC2)CN(C(c2ccccc2)c2ccccc2)C1` [Example 71, N-(azetidin-1-ylsulfonyl)-4-((1-benzhydryl-3-methylazetidin-3-yl)methoxy)-5-cyclopropyl-2-fluorobenzamide] as the compound, how does the IC50 read?
**A.** The IC50 was 3.1 nM.

**Q.** With `CC(C)Oc1ncc([C@H](c2ccccc2)N2CC(COc3cc(F)c(C(=O)NS(C)(=O)=O)cc3C3CC3)C2)cc1Cl` [Example 114, (S)-4-((1-((5-Chloro-6-isopropoxypyridin-3-yl)(phenyl)methyl)azetidin-3-yl)methoxy)-5-cyclopropyl-2-fluoro-N-(methylsulfonyl)benzamide] as the compound, how does the IC50 read?
**A.** The IC50 was 7.27 nM.

**Q.** For `CS(=O)(=O)NC(=O)c1cc(C2CC2)c(OCC2CCN(Cc3ccccc3)CC2)cc1F` [Example 87, 4-((1-Benzylpiperidin-4-yl)methoxy)-5-cyclopropyl-2-fluoro-N-(methylsulfonyl)benzamide], which IC50 is on record?
**A.** The IC50 was 278 nM.

**Q.** `CCS(=O)(=O)NC(=O)c1cc(C2CC2)c(OCC2CCN([C@H](c3cc(Cl)cc(Cl)c3)C(F)F)CC2)cc1F` [Example 227, (R)-5-cyclopropyl-4-((1-(1-(3,5-dichlorophenyl)-2,2-difluoroethyl)piperidin-4-yl)methoxy)-N-(ethylsulfonyl)-2-fluorobenzamide] was tested. Which IC50 did it give?
**A.** The IC50 was 8.1 nM.

**Q.** How did the IC50 turn out when `O=C(NS(=O)(=O)C1CC1)c1cc(C2CC2)c(OCC2CCN(S(=O)(=O)c3ccc(Br)c(F)c3)CC2)cc1F` [Example 369, 4-((1-((4-bromo-3-fluorophenyl)sulfonyl)piperidin-4-yl)methoxy)-5-cyclopropyl-N-(cyclopropylsulfonyl)-2-fluorobenzamide] was run?
**A.** Its IC50 is 14.5 nM.

**Q.** Which IC50 does the source give for `CS(=O)(=O)NC(=O)c1cc(C2CC2)c(OCC2CCN(S(=O)(=O)c3ccc4ccccc4c3)CC2)cc1F` [Example 388, 5-cyclopropyl-2-fluoro-N-(methylsulfonyl)-4-((1-(naphthalen-2-ylsulfonyl)piperidin-4-yl)methoxy)benzamide] here?
**A.** The IC50 was 16.3 nM.

**Q.** Which IC50 does the source give for `Cc1cc(C(=O)NS(C)(=O)=O)c(F)cc1OCC1CCN([C@@H](C)c2cc(Cl)cc(Cl)c2)CC1` [Example 360, (S)-4-((1-(1-(3,5-dichloro)ethyl)piperidin-4-yl)methoxy)-2-fluoro-5-methyl-N-(methylsulfonyl)benzamide, trifluoroacetic acid] here?
**A.** The IC50 was 12.8 nM.

**Q.** Which IC50 does the source give for `CC1(COc2cc(F)c(C(=O)NS(=O)(=O)C3CC3)cc2C2CC2)CN(c2ccc(C(F)(F)F)cn2)C1` [Example 488, 5-cyclopropyl-N-(cyclopropylsulfonyl)-2-fluoro-4-((3-methyl-1-(5-(trifluoromethyl)pyridin-2-yl)azetidin-2-3-yl)methoxy)benzamide, trifluoroacetic acid salt] here?
**A.** Its IC50 is 9.2 nM.

**Q.** `CS(=O)(=O)NC(=O)c1cc(C2CC2)c(OCC2CCN(C(=O)c3cc(Cl)cc(Cl)c3)CC2)cc1F` [Example 253, 5-Cyclopropyl-4-((1-(3,5-dichlorobenzoyl)piperidin-4-yl)methoxy)-2-fluoro-N-(methylsulfonyl)benzamide] was tested. Which IC50 did it give?
**A.** Its IC50 is 20 nM.

**Q.** `O=C(NS(=O)(=O)C(F)F)c1cc(C2CC2)c(OCC2CN(C(c3ccccc3)c3ccccc3)C2)cc1F` [Example 62] was tested. Which IC50 did it give?
**A.** The IC50 was 47 nM.
